ChEMBL document CHEMBL3875152, “Synthesis and evaluation against Leishmania amazonensis of novel pyrazolo[3,4-d]pyridazinone-N-acylhydrazone-(bi)thiophene hybrids” (Eur J Med Chem, 2016)

What was measured:
Leishmania amazonensis [1] = assay: Antileishmanial activity against Leishmania amazonensis WHOM/BR/75/JOSEFA promastigotes after 72 hrs by Neubauer chamber method; format: functional
Leishmania amazonensis [2] = assay: Antileishmanial activity against Leishmania amazonensis WHOM/BR/75/JOSEFA axenic amastigotes after 72 hrs by Neubauer chamber method; format: functional
[3] = Cytotoxicity against mouse L929 cells assessed as decrease in cell viability after 48 hrs by MTT method; format: toxicity
[4] = Cytotoxicity against mouse J774A1 cells assessed as decrease in cell viability after 48 hrs by MTT method; format: toxicity, J774.A1
[5] = Selectivity index, ratio of CC50 for mouse L929 cells to IC50 for Leishmania amazonensis WHOM/BR/75/JOSEFA promastigotes; format: functional
[6] = Selectivity index, ratio of CC50 for mouse J774A1 cells to IC50 for Leishmania amazonensis WHOM/BR/75/JOSEFA promastigotes; format: functional, J774.A1
[7] = Selectivity index, ratio of CC50 for mouse L929 cells to IC50 for Leishmania amazonensis WHOM/BR/75/JOSEFA axenic amastigotes; format: functional
[8] = Selectivity index, ratio of CC50 for mouse J774A1 cells to IC50 for Leishmania amazonensis WHOM/BR/75/JOSEFA axenic amastigotes; format: functional, J774.A1

Row | IC50 (Leishmania amazonensis [1]) | SMILES | also measured
1 | > 100 µM | CN(/N=C/c1ccc(-c2cccs2)s1)C(=O)c1nn(-c2ccccc2)c(=O)c2c1cnn2-c1ccccc1 | –
2 | > 100 µM | NNC(=O)c1nn(-c2ccccc2)c(=O)c2c1cnn2-c1ccc(Cl)cc1 | –
3 | > 100 µM | O=C(N/N=C/c1cccs1)c1n[nH]c(=O)c2[nH]ncc12 | –
4 | 3.63 µM | O=C(N/N=C/c1ccc(-c2cccs2)s1)c1nn(-c2ccccc2)c(=O)c2c1cnn2-c1ccccc1 | IC50 (Leishmania amazonensis [2]): 2.32 µM; CC50 at 48 h [3]: 77.4 µM; CC50 at 48 h [4]: > 191 µM; Ratio CC50/IC50 [5]: 21.33; Ratio CC50/IC50 [6]: >52.71; Ratio CC50/IC50 [7]: 33.38; Ratio CC50/IC50 [8]: >82.48
5 | > 100 µM | NNC(=O)c1n[nH]c(=O)c2c1cnn2-c1ccccc1 | –
6 | > 100 µM | O=C(N/N=C/c1cccs1)c1nn(-c2ccccc2)c(=O)c2c1cnn2-c1ccc(Cl)cc1 | –
7 | > 100 µM | NNC(=O)c1n[nH]c(=O)c2c1cnn2-c1ccc(Cl)cc1 | –
8 | > 100 µM | O=C(N/N=C/c1ccc(-c2cccs2)s1)c1n[nH]c(=O)c2c1cnn2-c1ccc(Cl)cc1 | –
9 | > 100 µM | O=C(N/N=C/c1ccc(-c2cccs2)s1)c1n[nH]c(=O)c2[nH]ncc12 | –
10 | > 100 µM | O=C(N/N=C/c1ccc(-c2cccs2)s1)c1nn(-c2ccccc2)c(=O)c2c1cnn2-c1ccc(Cl)cc1 | –
11 | > 100 µM | O=C(N/N=C/c1cccs1)c1n[nH]c(=O)c2c1cnn2-c1ccc(Cl)cc1 | –
12 | > 100 µM | NNC(=O)c1n[nH]c(=O)c2[nH]ncc12 | –
13 | 85 µM | O=C(N/N=C/c1cccs1)c1nn(-c2ccccc2)c(=O)c2c1cnn2-c1ccccc1 | IC50 (Leishmania amazonensis [2]): 32.7 µM; CC50 at 48 h [3]: 186 µM; CC50 at 48 h [4]: 106 µM; Ratio CC50/IC50 [5]: 2.19; Ratio CC50/IC50 [6]: 1.25; Ratio CC50/IC50 [7]: 5.68; Ratio CC50/IC50 [8]: 3.25
14 | > 100 µM | NNC(=O)c1nn(-c2ccccc2)c(=O)c2c1cnn2-c1ccccc1 | –

Further lines, the compound ahead of its results:

Row | SMILES | IC50 (Leishmania amazonensis [1]) | also measured
15 | O=C(N/N=C/c1cccs1)c1n[nH]c(=O)c2c1cnn2-c1ccccc1 | > 100 µM | –
16 | O=C(N/N=C/c1cccs1)c1nn(-c2ccc(Cl)cc2)c(=O)c2c1cnn2-c1ccccc1 | > 100 µM | –
17 | NNC(=O)c1nn(-c2ccc(Cl)cc2)c(=O)c2c1cnn2-c1ccc(Cl)cc1 | > 100 µM | –
18 | NNC(=O)c1nn(-c2ccc(Cl)cc2)c(=O)c2c1cnn2-c1ccccc1 | > 100 µM | –
19 | O=C(N/N=C/c1cccs1)c1nn(-c2ccc(Cl)cc2)c(=O)c2c1cnn2-c1ccc(Cl)cc1 | > 100 µM | –
20 | O=C(N/N=C/c1ccc(-c2cccs2)s1)c1nn(-c2ccc(Cl)cc2)c(=O)c2c1cnn2-c1ccccc1 | > 100 µM | –
21 | O=C(N/N=C/c1ccc(-c2cccs2)s1)c1n[nH]c(=O)c2c1cnn2-c1ccccc1 | 10.8 µM | IC50 (Leishmania amazonensis [2]): > 100 µM; CC50 at 48 h [3]: < 1 µM; CC50 at 48 h [4]: 114 µM; Ratio CC50/IC50 [6]: 10.6
22 | O=C(N/N=C/c1ccc(-c2cccs2)s1)c1nn(-c2ccc(Cl)cc2)c(=O)c2c1cnn2-c1ccc(Cl)cc1 | > 100 µM | –
23 | C[C@@H]1[C@H](O)[C@@H](C)/C=C/C=C/C=C/C=C/C=C/C=C/C=C/[C@H](O[C@@H]2O[C@H](C)[C@@H](O)[C@H](N)[C@@H]2O)C[C@@H]2O[C@](O)(C[C@@H](O)C[C@@H](O)[C@H](O)CC[C@@H](O)C[C@@H](O)CC(=O)O[C@H]1C)C[C@H](O)[C@H]2C(=O)O [AMPHOTERICIN B] | 0.64 µM | CC50 at 48 h [3]: 79.1 µM; CC50 at 48 h [4]: 16.8 µM; Ratio CC50/IC50 [5]: 123.64; Ratio CC50/IC50 [6]: 26.25
